Reference: US20260345619A1 (Principia Biopharma Inc., priority 2023, published 2026)

Test: Pre-bronchodilator FEV1 and percent predicted FEV1 by spirometry, change from baseline
Assay type: in vivo, human
Conditions: for Change from baseline in pre-bronchodilator FEV1, LS Mean (SE) / Change from baseline in pre-bronchodilator FEV1, LS Mean Diff vs. placebo (95% CI) / Change from baseline in pre-bronchodilator FEV1, Mean (SD): EOT (Week 12); for FEV1 change / improvement (in words): following ICS/LABA withdrawal, both cohorts
Protocol: Spirometry is a standard test to measure patients' lung function.
The primary endpoint was the proportion of patients with LOAC. The key secondary endpoint for the study was change in pre-bronchodilator FEV1 from baseline at EOT.
Reversibility is defined as an increase of the absolute FEV1 after administration of bronchodilator and is measured by spirometry as postbronchodilator increase in FEV1 in percent of the prebronchodilator FEV1. After spirometry for measuring prebronchodilator FEV1, participants were to receive 2-4 puffs of albuterol/salbutamol or levalbuterol/levosalbutamol from a primed MDI. The postbronchodilator spirometry may have been repeated several times within 30 minutes after administration of bronchodilator. Alternatively, and only if it was consistent with usual office practice (to be documented), reversibility may have been performed using inhalation of nebulized albuterol/salbutamol or levalbuterol/levosalbutamol.
Secondary endpoints included pre-bronchodilator FEV1 change from baseline at EOT, ACQ-5 score change from baseline, and AQLQ score change from baseline. Other secondary and exploratory endpoints are described in Table 2.

[1] = 400 mg TID, Week 12, baseline FeNO ≥35 ppb
[2] = 400 mg TID, Week 12, baseline IgA <2190 mg/L (median)
[3] = 400 mg TID, Week 12, baseline IgA ≥2190 mg/L (median)
[4] = 400 mg TID, Week 12, baseline IgE <100 IU/mL
[5] = 400 mg TID, Week 12, baseline IgE <121.85 IU/mL (median)
[6] = 400 mg TID, Week 12, baseline IgE ≥100 IU/mL
[7] = 400 mg TID, Week 12, baseline IgE ≥121.85 IU/mL (median)
[8] = 400 mg TID, Week 12, baseline blood eosinophils <0.15 10^9/L
[9] = 400 mg TID, Week 12, baseline blood eosinophils <0.3 10^9/L
[10] = 400 mg TID, Week 12, baseline blood eosinophils ≥0.15-<0.3 10^9/L
[11] = 400 mg TID, Week 12, baseline blood eosinophils ≥0.3 10^9/L
[12] = 400 mg TID, Week 12, baseline percent predicted FEV1 <77% (median)
[13] = 400 mg TID, Week 12, baseline percent predicted FEV1 <80%
[14] = 400 mg TID, Week 12, baseline percent predicted FEV1 ≥77% (median)
[15] = 400 mg TID, Week 12, baseline percent predicted FEV1 ≥80%
[16] = 400 mg TID, Week 12, baseline weight ≥60-<90 kg
[17] = 400 mg TID, Week 12, baseline weight ≥90 kg
[18] = 400 mg TID, Week 12, smoking history Former
[19] = 400 mg TID, Week 12, smoking history Never
[20] = 400 mg TID, low EOS (<0.15) and low FeNO (<25), mITT
[21] = 400 mg TID, Week 2, observed/LOCF imputed, mITT
[22] = 400 mg TID, Week 4, observed/LOCF imputed, mITT
[23] = 400 mg TID, Week 6, observed/LOCF imputed, mITT
[24] = 400 mg TID, Week 8, observed/LOCF imputed, mITT
[25] = 400 mg TID, Week 10, observed/LOCF imputed, mITT
[26] = 400 mg TID, Week 12 (EOT), MMRM supplementary analysis, mITT
[27] = 400 mg TID, Week 12 (EOT), MMRM, mITT
[28] = 400 mg TID, Week 12, observed/LOCF imputed, mITT
[29] = 400 mg TID, Week 12, reduced model, mITT

CC(C)(C=C(C#N)C(=O)N1CCC[C@@H](n2nc(-c3ccc(Oc4ccccc4)cc3F)c3c(N)ncnc32)C1)N1CCN(C2COC2)CC1 (mixture of isomers) [rilzabrutinib, (R)-2-[3-[4-amino-3-(2-fluoro-4-phenoxy-phenyl)pyrazolo[3,4-d]pyrimidin-1-yl]piperidine-1-carbonyl]-4-methyl-4-[4-(oxetan-3-yl)piperazin-1-yl]pent-2-enenitrile]
Pre-bronchodilator FEV1 change from baseline, LS Mean Diff vs. placebo [1]: -0.12 L | Pre-bronchodilator FEV1 change from baseline, Mean [1]: -0.07 L | Pre-bronchodilator FEV1 change from baseline, LS Mean [2]: -0.12 L | Pre-bronchodilator FEV1 change from baseline, LS Mean Diff vs. placebo [2]: -0.09 L | Pre-bronchodilator FEV1 change from baseline, Mean [2]: -0.12 L | Pre-bronchodilator FEV1 change from baseline, LS Mean [3]: -0.15 L | Pre-bronchodilator FEV1 change from baseline, LS Mean Diff vs. placebo [3]: -0.09 L | Pre-bronchodilator FEV1 change from baseline, Mean [3]: -0.17 L | Pre-bronchodilator FEV1 change from baseline, LS Mean [4]: -0.10 L | Pre-bronchodilator FEV1 change from baseline, LS Mean Diff vs. placebo [4]: -0.11 L | Pre-bronchodilator FEV1 change from baseline, Mean [4]: -0.20 L | Pre-bronchodilator FEV1 change from baseline, LS Mean [5]: -0.16 L | Pre-bronchodilator FEV1 change from baseline, LS Mean Diff vs. placebo [5]: -0.08 L | Pre-bronchodilator FEV1 change from baseline, Mean [5]: -0.17 L | Pre-bronchodilator FEV1 change from baseline, LS Mean [6]: -0.13 L | Pre-bronchodilator FEV1 change from baseline, LS Mean Diff vs. placebo [6]: -0.07 L | Pre-bronchodilator FEV1 change from baseline, Mean [6]: -0.12 L | Pre-bronchodilator FEV1 change from baseline, LS Mean [7]: -0.33 L | Pre-bronchodilator FEV1 change from baseline, LS Mean Diff vs. placebo [7]: -0.11 L | Pre-bronchodilator FEV1 change from baseline, Mean [7]: -0.13 L | Pre-bronchodilator FEV1 change from baseline, LS Mean [8]: -0.17 L | Pre-bronchodilator FEV1 change from baseline, LS Mean Diff vs. placebo [8]: -0.05 L | Pre-bronchodilator FEV1 change from baseline, Mean [8]: -0.17 L | Pre-bronchodilator FEV1 change from baseline, LS Mean [9]: -0.13 L | Pre-bronchodilator FEV1 change from baseline, LS Mean Diff vs. placebo [9]: -0.05 L | Pre-bronchodilator FEV1 change from baseline, Mean [9]: -0.15 L | Pre-bronchodilator FEV1 change from baseline, LS Mean [10]: -0.04 L | Pre-bronchodilator FEV1 change from baseline, LS Mean Diff vs. placebo [10]: -0.04 L | Pre-bronchodilator FEV1 change from baseline, Mean [10]: -0.10 L | Pre-bronchodilator FEV1 change from baseline, LS Mean [11]: -0.16 L | Pre-bronchodilator FEV1 change from baseline, LS Mean Diff vs. placebo [11]: -0.20 L | Pre-bronchodilator FEV1 change from baseline, Mean [11]: -0.16 L | Pre-bronchodilator FEV1 change from baseline, LS Mean [12]: -0.03 L | Pre-bronchodilator FEV1 change from baseline, LS Mean Diff vs. placebo [12]: -0.04 L | Pre-bronchodilator FEV1 change from baseline, Mean [12]: -0.10 L | Pre-bronchodilator FEV1 change from baseline, LS Mean [13]: -0.09 L | Pre-bronchodilator FEV1 change from baseline, LS Mean Diff vs. placebo [13]: -0.08 L | Pre-bronchodilator FEV1 change from baseline, Mean [13]: -0.13 L | Pre-bronchodilator FEV1 change from baseline, LS Mean [14]: -0.21 L | Pre-bronchodilator FEV1 change from baseline, LS Mean Diff vs. placebo [14]: -0.13 L | Pre-bronchodilator FEV1 change from baseline, Mean [14]: -0.19 L | Pre-bronchodilator FEV1 change from baseline, LS Mean [15]: -0.20 L | Pre-bronchodilator FEV1 change from baseline, LS Mean Diff vs. placebo [15]: -0.11 L | Pre-bronchodilator FEV1 change from baseline, Mean [15]: -0.17 L | Pre-bronchodilator FEV1 change from baseline, LS Mean [16]: -0.13 L | Pre-bronchodilator FEV1 change from baseline, LS Mean Diff vs. placebo [16]: -0.07 L | Pre-bronchodilator FEV1 change from baseline, Mean [16]: -0.15 L | Pre-bronchodilator FEV1 change from baseline, LS Mean [17]: -0.15 L | Pre-bronchodilator FEV1 change from baseline, LS Mean Diff vs. placebo [17]: -0.05 L | Pre-bronchodilator FEV1 change from baseline, Mean [17]: -0.17 L | Pre-bronchodilator FEV1 change from baseline, LS Mean (400 mg TID, Week 12, female): -0.11 L | Pre-bronchodilator FEV1 change from baseline, LS Mean Diff vs. placebo (400 mg TID, Week 12, female): -0.09 L | Pre-bronchodilator FEV1 change from baseline, Mean (400 mg TID, Week 12, female): -0.14 L | Pre-bronchodilator FEV1 change from baseline, LS Mean (400 mg TID, Week 12, male): -0.15 L | Pre-bronchodilator FEV1 change from baseline, LS Mean Diff vs. placebo (400 mg TID, Week 12, male): -0.09 L | Pre-bronchodilator FEV1 change from baseline, Mean (400 mg TID, Week 12, male): -0.16 L | Pre-bronchodilator FEV1 change from baseline, LS Mean [18]: -0.12 L | Pre-bronchodilator FEV1 change from baseline, LS Mean Diff vs. placebo [18]: -0.05 L | Pre-bronchodilator FEV1 change from baseline, Mean [18]: -0.21 L | Pre-bronchodilator FEV1 change from baseline, LS Mean [19]: -0.13 L | Pre-bronchodilator FEV1 change from baseline, LS Mean Diff vs. placebo [19]: -0.09 L | Pre-bronchodilator FEV1 change from baseline, Mean [19]: -0.15 L | Difference vs. placebo, LS mean change in pre-bronchodilator FEV1 (L) at Week 12 (400 mg TID, 95% CI −0.21, 0.03, p=0.1523): -0.09 L | Change from baseline in pre-bronchodilator FEV1, LS Mean (SE) (400 mg TID, all others, mITT): -0.09 L | Change from baseline in pre-bronchodilator FEV1, LS Mean Diff vs. placebo (95% CI) (400 mg TID, all others, mITT): -0.07 L | Change from baseline in pre-bronchodilator FEV1, Mean (SD) (400 mg TID, all others, mITT, n=30): -0.11 L | Change from baseline in pre-bronchodilator FEV1, LS Mean (SE) [20]: -0.20 L | Change from baseline in pre-bronchodilator FEV1, LS Mean Diff vs. placebo (95% CI) [20]: -0.14 L | Change from baseline in pre-bronchodilator FEV1, Mean (SD) (400 mg TID, low EOS (<0.15) and low FeNO (<25), mITT, n=16): -0.24 L | LS Mean change from baseline in pre-bronchodilator FEV1 (L) at Week 12 (400 mg TID, N=64, mITT): −0.13 (0.05) L | Pre-bronchodilator FEV1, mean [21]: 2.47 L | Pre-bronchodilator FEV1, median [21]: 2.37 L | Pre-bronchodilator FEV1 change from baseline, LS Mean [21]: -0.05 L | Pre-bronchodilator FEV1 change from baseline, LS Mean Diff vs. placebo [21]: -0.04 L | Pre-bronchodilator FEV1 change from baseline, Mean [21]: -0.04 L | Pre-bronchodilator FEV1 change from baseline, median [21]: -0.02 L | Pre-bronchodilator FEV1, mean [22]: 2.58 L | Pre-bronchodilator FEV1, median [22]: 2.50 L | Pre-bronchodilator FEV1 change from baseline, LS Mean [22]: -0.01 L | Pre-bronchodilator FEV1 change from baseline, LS Mean Diff vs. placebo [22]: 0.05 L | Pre-bronchodilator FEV1 change from baseline, Mean [22]: 0.02 L | Pre-bronchodilator FEV1 change from baseline, median [22]: -0.01 L | Pre-bronchodilator FEV1, mean [23]: 2.52 L | Pre-bronchodilator FEV1, median [23]: 2.37 L | Pre-bronchodilator FEV1 change from baseline, LS Mean [23]: -0.07 L | Pre-bronchodilator FEV1 change from baseline, LS Mean Diff vs. placebo [23]: 0.04 L | Pre-bronchodilator FEV1 change from baseline, Mean [23]: -0.07 L | Pre-bronchodilator FEV1 change from baseline, median [23]: -0.09 L | Pre-bronchodilator FEV1, mean [24]: 2.41 L | Pre-bronchodilator FEV1, median [24]: 2.38 L | Pre-bronchodilator FEV1 change from baseline, LS Mean [24]: -0.07 L | Pre-bronchodilator FEV1 change from baseline, LS Mean Diff vs. placebo [24]: 0.03 L | Pre-bronchodilator FEV1 change from baseline, Mean [24]: -0.12 L | Pre-bronchodilator FEV1 change from baseline, median [24]: -0.10 L | Pre-bronchodilator FEV1, mean [25]: 2.53 L | Pre-bronchodilator FEV1, median [25]: 2.50 L | Pre-bronchodilator FEV1 change from baseline, LS Mean [25]: -0.09 L | Pre-bronchodilator FEV1 change from baseline, LS Mean Diff vs. placebo [25]: 0.00 L | Pre-bronchodilator FEV1 change from baseline, Mean [25]: -0.10 L | Pre-bronchodilator FEV1 change from baseline, median [25]: -0.09 L | Change from baseline in pre-bronchodilator FEV1, Mean [26]: -0.14 L | Change from baseline in pre-bronchodilator FEV1, Median [26]: -0.09 L | Pre-bronchodilator FEV1, Mean [26]: 2.46 L | Pre-bronchodilator FEV1, Median [26]: 2.40 L | Change from baseline in pre-bronchodilator FEV1, LS Mean [27]: -0.16 L | Change from baseline in pre-bronchodilator FEV1, LS Mean diff vs. placebo [27]: -0.08 L | Change from baseline in pre-bronchodilator FEV1, Mean [28]: -0.15 L | Change from baseline in pre-bronchodilator FEV1, Median [28]: -0.12 L | Pre-bronchodilator FEV1, Mean [28]: 2.43 L | Pre-bronchodilator FEV1, Median [28]: 2.39 L | Pre-bronchodilator FEV1, mean [28]: 2.43 L | Pre-bronchodilator FEV1, median [28]: 2.39 L | Pre-bronchodilator FEV1 change from baseline, LS Mean [28]: -0.13 L | Pre-bronchodilator FEV1 change from baseline, LS Mean Diff vs. placebo [28]: -0.09 L | Pre-bronchodilator FEV1 change from baseline, Mean [28]: -0.15 L | Pre-bronchodilator FEV1 change from baseline, median [28]: -0.12 L | Change from baseline in pre-bronchodilator FEV1, LS Mean [29]: -0.13 L | Change from baseline in pre-bronchodilator FEV1, LS Mean diff vs. placebo [29]: -0.09 L | FEV1 change / improvement (in words): did not exhibit any change in FEV1 | FEV1 change / improvement (in words) (listed as Rilzabrutinib): not associated with an improvement in FEV1 values
